US8765690B2, “Treatment of cancer with glufosfamide in patients not receiving insulin therapy” (Threshold Pharmaceuticals, Inc., priority 2007, dated 2014)
Values joined by “and” are separate entries in the source; they are usually repeats but may differ in a detail not shown here. Equal entries are not always repeated. Structures can show the parent of a compound that is named as a salt.

Tests used:
[1] = test system: gemcitabine resistant metastatic pancreatic cancer; assay: Phase 3 clinical trial of glufosfamide versus best supportive care, overall survival; type: in vivo, human; conditions: for Actual overall survival: individual diabetic patient, named GLD given orally in combination with glufosfamide 4500 mg/m^2 over 6 hours once every 3 weeks; for relative risk for overall survival in Group 1 and Group 2 patients: glufosfamide vs BSC
Experimental: Glufosfamide is a prodrug of an alkylating agent useful in the treatment of cancer. A multi-center, randomized, open-label phase 3 clinical trial was conducted to evaluate the safety and efficacy of glufosfamide in treating gemcitabine resistant metastatic pancreatic cancer as measured by overall survival compared to BSC (best supportive care). Three hundred and three patients were randomized to the trial: 148 patients were randomized to the glufosfamide arm (n=148, Group 1) and 155 to BSC (n=155, Group 2).
Patients in Group 1 were administered glufosfamide for up to 42 weeks. Glufosfamide was administered intravenously over 6 hours once every 3 weeks at 4500 mg/m^2 for up to 14 doses.
One-quarter of the dose was infused over 30 minutes and the remainder over the following five and one-half hours.
To assess the efficacy of glufosfamide treatment, patients in Group 1 and Group 2 were not administered any medication known to have antitumor effects other than glufosfamide, e.g., the patients were not administered any other chemotherapy or systemic cytotoxic/cytostatic agents. However, other appropriate supportive measures and concomitant medications not known to have antitumor effects, such as analgesics, antibiotics, transfusions, hematopoietic colony-stimulating factors (as therapy but not as prophylaxis), erythropoietin, and megestrol acetate for appetite stimulation were administered when appropriate.
Tumor assessment was performed at baseline and once every 6 weeks for the first 24 weeks and then once every 9 weeks. The primary efficacy indicator was the overall survival in Group 1 compared to that in Group 2.
Seven diabetic patients (Group 1A) having gemcitabine resistant pancreatic cancer were treated with glufosfamide for 2-11 cycles in combination with various glucose lowering drugs (GLDs) other than insulin (see Table 2 below). Glufosfamide was administered intravenously over 6 hours, once every 3 weeks, at 4500 mg/m^2. The GLD was administered orally, once every day or qd, […] prior to the first glufosfamide administration; except that, the GLD was administered to patient no. 6 three times daily or tid. […] Tumor assessment was performed at baseline and once every 6 weeks for the first 24 weeks and then once every 9 weeks. Efficacy outcomes were evaluated based on comparing the overall median survival in Group 1A with that in Group 2A. The median overall survival in the Group 1A patients was 418 days (95% CI; 85 days-643 days) compared to 84 days (95% CI; 45 days-102 days) for those in group 2A (FIG. 3).

MiaPaCa-2-RFP tumor = assay: Surgical orthotopic implantation MiaPaCa-2-RFP pancreatic tumor model in nude mice, survival; type: in vivo, NCr nu/nu mice
Experimental: A total of sixty male NCr nu/nu mice, 5-6 weeks old, were used in the study. Original breeding pairs were purchased from Taconic, Germantown, N.Y. Test animals were bred and maintained in a HEPA filtered environment for the experiment. Cages, food and bedding were autoclaved. The animal diets were obtained from PMI Nutrition International Inc. (Brentwood, Mo.).
RFP gene transduction of MiaPaCa-2 cells: For RFP gene transduction, 20% confluent MiaPaCa-2 cells (ATCC, Rockville, Md.) were incubated with a 1:1 precipitated mixture of retroviral supernatants of PT67 cells and RPMI 1640 for 72 h. Fresh medium was replenished at this time. MiaPaCa-2 cells were harvested by trypsin-EDTA 72 h posttransduction and subcultured at a ratio of 1:15 into selective medium that contained 200 μg/ml G418. The level of G418 was increased to 1000 μg/ml stepwise. The brightest MiaPaCa-2 cell clones expressing RFP were selected, combined, and then amplified and transferred by conventional culture methods.
Subcutaneous Xenografts: Tumor stocks were made by subcutaneously injecting MiaPaCa-2-RFP cells at a concentration of 5×10^6 cells/200 μl into the flank of nude mice. see e.g., Bouvet et al. Cancer Res., 2002, 62, 1534-40 incorporated herein by reference. The strong RFP expression of tumors grown in the subcutis of mice was confirmed before harvest. The tumor tissues harvested from s.c growth in nude mice were inspected, and any grossly necrotic or suspected necrotic or non-RFP tumor tissues were removed. Tumor tissues were subsequently cut into small fragments of approximately 2 mm^3. […]
Statistical methods used in efficacy evaluation: Tumor volumes and tumor weights were compared using the Student's t-test with an α=0.05. Metastatic frequency of all groups were analyzed with Fisher's exact test with an α=0.05. Comparison of animal survival time between each treatment group and untreated control was analyzed using the Log-rank analysis with an α=0.05.

With `COc1ccc(Cl)cc1C(=O)NCCc1ccc(S(=O)(=O)NC(=O)NC2CCCCC2)cc1` [Glibenclamide] the Actual overall survival [1] was 85 and 643.

`CCC1=C(C)CN(C(=O)NCCc2ccc(S(=O)(=O)NC(=O)N[C@H]3CC[C@H](C)CC3)cc2)C1=O` [Glimepiride] gave an Actual overall survival [1] of 54.

With `CN(CCOc1ccc(CC2SC(=O)NC2=O)cc1)c1ccccn1` (stereo not shown) [Rosiglitazone maleate] the Actual overall survival [1] was 479.

For `Cc1ccc(S(=O)(=O)NC(=O)NN2CC3CCCC3C2)cc1` (stereo not shown) [Gliclazide], the Actual overall survival [1] was 145 and 476+.

`O=P(NCCCl)(NCCCl)O[C@@H]1O[C@H](CO)[C@@H](O)[C@H](O)[C@H]1O` [glufosfamide, beta-D-glucosyl-ifosfamide mustard] was tested, and the median overall survival (MiaPaCa-2-RFP tumor; glufosfamide 50 mg/kg i.v. qd x 7 alone) was 26 days, the median overall survival (MiaPaCa-2-RFP tumor; glufosfamide 50 mg/kg i.v. qd x 7 in combination with glimepiride 12 mg/kg p.o. qd x 14, log rank p<0.01) was 35 days and the “survival improvement compared to glufosfamide administered alone” value (MiaPaCa-2-RFP tumor; glufosfamide 50 mg/kg in combination with glimepiride 12 mg/kg, FIG. 4) was “more effective in extending survival”. For the same molecule, the median overall survival ([1]; Group 1 (n=148), glufosfamide 4500 mg/m^2 i.v. over 6 hours once every 3 weeks, all randomized patients) was 105 days, the median overall survival ([1]; Group 1 patients (n=123) not administered insulin prior to first glufosfamide administration) was 115 days and the “relative risk for overall survival in Group 1 and Group 2 patients” value (“relative risk for overall survival” below) ([1]; diabetic patients receiving glucose lowering drug other than insulin, p=0.020) was 0.24. The “relative risk for overall survival” value ([1]; proportional hazards model stratified by KPS, all patients, p=0.187) was 0.848, the “relative risk for overall survival” value ([1]; patients not administered insulin prior, p=0.048) was 0.761 and the “benefit from the administration of glufosfamide” value ([1]; patients receiving a glucose lowering drug other than insulin, compared with patients not receiving such drugs) was “more benefit”. For the same molecule, the “benefit from the administration of glufosfamide” value ([1]; patients receiving insulin) was “no benefit or less benefit” and the median overall survival ([1]; seven diabetic Group 1 patients (Group 1A) on glufosfamide plus a glucose lowering drug other than insulin, no prior insulin) was 418 days.

Molecule `Cc1cnc(C(=O)NCCc2ccc(S(=O)(=O)NC(=O)NC3CCCCC3)cc2)cn1` [Glipizide] has an Actual overall survival [1] of 418.
